Results: article PMC3828658 (Organic & biomolecular chemistry, 2013)
Entries after “also recorded” stand apart in the source; their conditions may differ.

What was measured:
LDH-A [1] = target: T1, LDH-A (Homo sapiens, UniProt P00338); assay: Enzyme inhibition of purified human LDH-A; format: biochemical
LDH-A [2] = target: T1, LDH-A; assay: Enzyme kinetics, NADH-competition, mixed-model inhibition fit; format: biochemical
HeLa cells [3] = assay: Intracellular concentration / cellular uptake by LC-MS; format: cell-based, human; conditions: 500 μM, 30 minutes
HeLa cells [4] = assay: Lactate production inhibition in HeLa cells quantified by GC-MS; format: cell-based, human; conditions: 8 hours; for effect on lactate production: 50-200 μM
HeLa cells [5] = assay: Anticancer potency, 72 hour Sulforhodamine B assay; format: cell-based, human; conditions: for IC50: Homo sapiens, HeLa, 72 h, read-out: Anticancer potency, 72 hour IC50; for cell death: HeLa cells, 100 μM, 72 hours
LDH-A [6] = conditions: read-out: LDH-A IC50 reported in the literature; cited from earlier work
[7] = cited from earlier work
Stability [8] = format: in vitro ADME, human; conditions: 30 min at 37 °C, 100 μM
Stability [9] = format: in vitro ADME; conditions: RPMI 1640 growth media, 30 min at 37 °C, 100 μM
WT-MEF = assay: Growth inhibition in non-cancerous immortalized cell line, SRB assay; format: cell-based; conditions: 100 μM, 72 hours, preliminary

SMILES | Ki (LDH-A [2]) [µM] | cellular uptake in HeLa cells (HeLa cells [3]; LC-MS) | effect on lactate production (HeLa cells [4]) | IC50 (HeLa cells [5]) [µM] | cleavage in HeLa cell lysate (Stability [8]) | stability / cleavage in culture media (Stability [9]) | cell death (HeLa cells [5]) [%] | cell death (WT-MEF) | also measured
Cc1nc2ccc(NC(=O)CCNC(=O)CCCc3ccc(CC(C(=O)O)C(=O)O)cc3)cc2s1 [Compound 3, 2-(4-(4-((3-((2-methylbenzo[d]thiazol-6-yl)amino)-3-oxopropyl)amino)-4-oxobutyl)benzyl)malonic acid, reference compound] | 0.23 | could not be detected in lysate | did not show any effect | > 500 | – | – | – | – | IC50 (LDH-A [1]): 1000 ± 200 nM; IC50 (LDH-A [6]): 500 nM; activity in cell-based assays (literature) [7]: inactive
COC(=O)C(Cc1ccc(CCCC(=O)NCCC(=O)Nc2ccc3nc(C)sc3c2)cc1)C(=O)OC [Compound 4, dimethyl 2-(4-(4-((3-((2-methylbenzo[d]thiazol-6-yl)amino)-3-oxopropyl)amino)-4-oxobutyl)benzyl)malonate, reference compound] | – | efficient cell uptake | significant reduction | 75.4 | substantially cleaved to compound 5 | stable; also recorded: not appreciably cleaved | – | – | LDH-A (IC50) [NADH] (LDH-A [1]; NADH-competition assay: 1440 μM sodium pyruvate, 40 μM NADH, mean ± SD): lack of inhibitory potency; monohydrolysis to monoester 5 in HeLa cell lysate (Stability [8]): ~ 50%
COC(=O)C(Cc1ccc(CCCC(=O)NCCC(=O)Nc2ccc3nc(C)sc3c2)cc1)C(=O)O (stereo not drawn) [Compound 5, 3-Methoxy-2-(4-(4-((3-((2-methylbenzo[d]thiazol-6-yl)amino)-3-oxopropyl)amino)-4-oxobutyl)benzyl)-3-oxopropanoic acid] | – | no direct cell uptake | failed to result in any substantial reduction | – | – | – | – | – | cell death in HeLa cells (HeLa cells [5]; 72 hour treatment, up to 200 μM): No substantial cell death
O=C(O)c1cc2c(C(F)(F)F)cc(-c3ccccc3)cc2n1O [Compound 1, 1-Hydroxy-6-phenyl-4-(trifluoromethyl)-1H-indol-2-carboxylic acid] | 10.8 | – | – | 43.8 | – | – | 100 | less than 20% | lactate production relative to vehicle (HeLa cells [4]; 100 μM): 70%
COC(=O)c1cc2c(C(F)(F)F)cc(-c3ccccc3)cc2n1O [Compound 2, methyl 1-hydroxy-6-phenyl-4-(trifluoromethyl)-1H-indol-2-carboxylate] | – | – | – | 33.4 | not appreciably cleaved | not appreciably cleaved | 100 | approximately 70% | concentration in HeLa cell lysate solution relative to free acid 1 (HeLa cells [3]; LC-MS): ~ 4 fold; cleavage of methyl ester following cellular incubation (HeLa cells [3]; HeLa cells): No cleavage; lactate production relative to vehicle (HeLa cells [4]; 200 μM): ~ 20%
